Measured values: patent publication US20230158036A1, “MEDICAMENT FOR THE TREATMENT OF PAIN” (Shionogi & Co., Ltd., priority 2020, published 2023)

What was measured:
[1] = system: patients of interstitial cystitis/bladder pain syndrome; conditions: twice daily oral, gradually increased from 50 mg to 300 mg, after 4 weeks; NPRS before administration 6.2; cited from earlier work
[2] = system: knee osteoarthritis patients; conditions: 300 mg twice daily oral, after 4 weeks; NPRS before administration 6.8; cited from earlier work
[3] = system: mouse bone cancer pain model; assay: Drug efficacy in mouse bone cancer pain model (NCTC2472 cells in femur, von Frey; Test Example 10); assay type: in vivo; conditions: 10 mg/kg oral, two weeks after operation
Text: (Test Example 10) Assessment of Drug Efficacy in Mouse Bone Cancer Pain Model
Preparation of Mouse Bone Cancer Pain Model
The skin was incised under isoflurane anesthesia, the muscles were torn to expose the left femur, a hole was made in the bone marrow cavity using a 26 G needle, and tumor cells (NCTC2472 cells derived from C3H/HeN mice) were transplanted using a 30 G needle. The hole made in the femoral bone marrow cavity was closed with dental cement, and then the skin was sutured. Mice in sham-operated groups were prepared by administering HBSS instead of tumor cells.
Two weeks after the operation, the effect on tactile allodynia was assessed using von Frey filaments. Two weeks after the operation, for habituation, the mice were placed into a plastic cage on a wire mesh bottom. […] The pain threshold was evaluated for the operated hind limb and defined as a pre-administration pain threshold, and the compound represented by the formula (I) was administered to the animal at 10 mg/kg. […] Pain thresholds were measured for the operated hind limbs after the administration of the test substance, and these were used as post-administration pain thresholds. A percent reversal value for each rat was calculated using the following formula. […]

[4] = system: mouse bladder pain model; assay: Drug efficacy in cystitis pain model (cyclophosphamide, automatic von Frey; Test Example 9); assay type: in vivo; conditions: 3 mg/kg oral, 1 hour after administration
Experimental: (Test Example 9) Assessment of Drug Efficacy in Cystitis Pain Model
Preparation of Mouse Bladder Pain Model
Cyclophosphamide was dissolved in physiological saline or the like, and the solution was intraperitoneally administered to mice. Cyclophosphamide was administered at 150 mg/kg once daily consecutively for four days. As a control, mice to which saline was administered were also prepared.
The analgesic effect of the compound represented by Formula (I) was evaluated the day after the final administration of cyclophosphamide. In this test, mechanical stimulation by an automatic von Frey device was applied to the periphery of the lower abdomen while holding the mouse, and with respect to the resulting escape behavior defined as pain-like behavior, the pain threshold was determined. On the day of the test, the pain threshold before the administration (pre-administration pain threshold) of the compound represented by Formula (I) was measured, and then after the administration of the test substance, the pain threshold was measured. […] Pain thresholds were measured at 1 hour after the administration of the test substance, and these were used as post-administration pain thresholds. A percent reversal value for each rat was calculated using the following formula. […]

[5] = system: partial sciatic nerve ligation model in rats; assay: Drug efficacy in Seltzer model (partial sciatic nerve ligation, von Frey tactile allodynia; Test Example 5); assay type: in vivo; conditions: rat, 10 mg/kg oral, 3 hours after administration, two weeks after operation
Text: (Test Example 5) Assessment of Drug Efficacy in Seltzer Model
Partial Sciatic Nerve Ligation Model in Rats
Each rat was anesthetized with isoflurane and the hair of the left thigh was shaved. An incision was made in the skin just below the hip bone. The muscle was bluntly dissected to expose the sciatic nerve. ⅓ to ½ of the sciatic nerve was strongly ligated with a thread, and the muscle and the skin were sutured. This is referred to as a nerve ligated side. The right thigh underwent an identical procedure with the left hind limb except for the ligation of the sciatic nerve. This is referred to as a sham operated side.
Two weeks after the operation, the effect on tactile allodynia was assessed using von Frey filaments. Two weeks after the operation, for habituation, the rats were placed into a plastic cage on a wire mesh bottom. […] Pain thresholds were measured for the left and right hind limbs and these were used as pre-treatment pain thresholds. […] Pain thresholds were measured for the right and left hind limbs at 3 hours after the drug administration, and these were used as post-treatment pain thresholds. A percent reversal value for each rat was calculated using the following formula. […]

[6] = system: acetic acid-induced urination disorder model; assay: Drug efficacy in acetic acid-induced urination disorder model (Test Example 11); assay type: in vivo; conditions: rat, 3 mg/kg oral
Experimental: (Test Example 11) Assessment of Drug Efficacy in Acetic Acid-Induced Urination Disorder Model
Preparation of acetic acid-induced urination disorder model
A catheter was placed in a rat bladder under isoflurane anesthesia. After 2 days from the surgery for placing the catheter, 0.3% acetic acid was administered at 4 mL/hr over 30 minutes to induce cystitis. In this model, the amount of urine per urinating action and the voiding interval decreased.
On the day after acetic acid was administered, the amount of urine per urinating action and the voiding interval before drug administration were evaluated. The compound represented by Formula (I) was homogenized with mortar and pestle and suspended in 0.5% Methyl Cellulose to prepare a suspension, and it was orally administered at 0.1 mg/kg, 0.75 mg/kg, or 3 mg/kg to the rats using a syringe attached with a sonde. The amount of urine per urinating action and the voiding interval during a period from 30 minutes to 150 minutes after administration were measured. The value before administration for each individual was assumed to be 100%, and the change rate after administration was calculated.
Rate of change in amount of voided urine per urinating action=(amount of urine per urinating action after drug treatment of cystitis rat[…]amount of voided urine per urinating action before drug treatment of cystitis rat)×100
Rate of change in voiding interval=(voiding interval after drug treatment of cystitis rat[…]voiding interval before drug treatment of cystitis rat)×100

[7] = system: rat knee osteoarthritis model; assay: Drug efficacy in knee osteoarthritis pain model (MIA, hind limb load distribution; Test Example 7); assay type: in vivo; conditions: 10 mg/kg oral, 3 hours after administration
Experimental: (Test Example 7) Assessment of Drug Efficacy in Knee Osteoarthritis Pain Model
Preparation of Rat Knee Osteoarthritis Model
Under isoflurane anesthesia, a knee joint on one side was shaved, and a monoiode sodium acetate (MIA) solution (saline solution, up to 5 mg/50 μL/rat) was intraarticularly administered.
Two weeks after the MIA administration, the analgesic effect of the compound represented by Formula (I) was evaluated. This test was based on a system for measuring a load distribution applied to hind limbs of a rat, and a ratio of load differences between left and right hind limbs was used as a pain threshold. On the day of the test, the pain threshold before the administration of the compound represented by Formula (I) was measured, and then after the administration of the test substance, the pain threshold was measured. […] Pain thresholds were measured for the hind limbs at 3 hours after the administration of the test substance, and these were used as post-administration pain thresholds. The load difference was measured up to three times, and the average value thereof was used as the pain threshold.
A percent reversal value for each rat was calculated using the following formula. […]

[8] = molecular target: T1, rat P2X3 receptor (Rattus norvegicus, UniProt P49654); assay: Evaluation of rat P2X3 receptor inhibitory activity in the presence of rat serum albumin (Test Example 4); assay type: cell-based
T1 construct: expressed in transfected cells; host or cells: C6BU-1 cells (stably expressing line)
T1 sequence (P49654 1-397): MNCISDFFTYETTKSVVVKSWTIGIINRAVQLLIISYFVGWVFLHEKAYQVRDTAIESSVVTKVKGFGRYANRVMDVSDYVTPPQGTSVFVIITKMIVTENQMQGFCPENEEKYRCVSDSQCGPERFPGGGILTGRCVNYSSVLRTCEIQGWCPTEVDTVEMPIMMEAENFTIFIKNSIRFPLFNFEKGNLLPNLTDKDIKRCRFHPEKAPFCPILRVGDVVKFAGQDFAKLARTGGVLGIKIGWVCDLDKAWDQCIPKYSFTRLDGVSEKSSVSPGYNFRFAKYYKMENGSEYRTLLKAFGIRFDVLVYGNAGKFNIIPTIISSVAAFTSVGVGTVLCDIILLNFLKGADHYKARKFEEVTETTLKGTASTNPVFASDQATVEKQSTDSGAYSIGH
Text: (Test Example 4) Evaluation of Rat P2X3 Receptor Inhibitory Activity in the Presence of Rat Serum Albumin (RSA)

[9] = system: rat inflammatory pain model; assay: Drug efficacy in inflammatory pain model (FCA, Randall-Selitto; Test Example 8); assay type: in vivo; conditions: 10 mg/kg oral, 1 hour after administration
Experimental: (Test Example 8) Assessment of Drug Efficacy in Inflammatory Pain Model
Preparation of Rat Inflammatory Pain Model
Under isoflurane anesthesia, FCA (12.5-100 μg) was subcutaneously injected into the hind limb of a rat to prepare an inflammatory pain model.
(§1) Two weeks after the administration of FCA, the analgesic effect of the compound represented by Formula (I) was evaluated by the Randall-Selitto method. […] On the day of the test, the pain threshold before the administration of the compound represented by Formula (I) was measured, and then after the administration of the test substance, the pain threshold was measured. The compound represented by Formula (I) was homogenized with mortar and pestle and suspended in 0.5% Methyl Cellulose to prepare a suspension, and it was orally administered at 10 mg/kg to the animals using a syringe attached with a sonde. Pain thresholds were measured for the hind limbs at 1 hour after the administration of the test substance, and these were used as post-administration pain thresholds. A percent reversal value for each rat was calculated using the following formula. The analgesic effects of the compound were compared.
% Reversal value=(post-administration pain threshold−pre-administration pain threshold)/(pain threshold of hind limb on FCA-non-administered side−pre-administration pain threshold)×100

[10] = system: rat diabetic neuropathic pain model; assay: Drug efficacy in diabetic neuropathic pain model (STZ, Randall-Selitto; Test Example 6); assay type: in vivo; conditions: 10 mg/kg oral, 3 hours after administration
Experimental: (Test Example 6) Assessment of Drug Efficacy in Diabetic Neuropathic Pain Model
Preparation of Rat Diabetic Neuropathic Pain Model
To overnight fasted rats, […] of streptozotocin (STZ) was intravenously administered to prepare a diabetes model. As a control, rats to which saline was administered were also prepared.
as §1, with “STZ,” for “FCA,”, “3 hours” for “1 hour”
% Reversal value=(post-administration pain threshold−pre-administration pain threshold)/(pain threshold of saline-administered rat−pre-administration pain threshold)×100

[11] = 30 to 150 minutes after administration, value before administration = 100%

SMILES | Numeric pain rating scale (NPRS) after administration [1] | Numeric pain rating scale (NPRS) after administration [2] | Percent reversal value (pain threshold, von Frey) [3] [%] | Percent reversal value (lower abdomen pain threshold, automatic von Frey) [4] [%] | Percent reversal value (pain threshold, von Frey) [5] [%] | Rate of change in amount of voided urine per urinating action [6, 11] [%] | Rate of change in voiding interval [6, 11] [%] | Effect on voiding interval and amount of voided urine (FIGS. 1 and 2), in words ([6]; p<0.05 vs vehicle (Dunnett)) | Percent reversal value (load difference between left and right hind limbs) [7] [%] | IC50 [8] [nM] | Percent reversal value (pain threshold, Randall-Selitto) [9] [%] | Percent reversal value (pain threshold, Randall-Selitto) [10] [%]
COc1cc(C(C)C)c(Oc2cnc(N)nc2N)cc1S(N)(=O)=O [Gefapixant] | 3.3 | 4.9 | – | – | – | – | – | – | – | – | – | –
C[C@@H](Cn1c(=O)[nH]/c(=N\c2ccc(Oc3ccccn3)cc2)n(Cc2ccc(Cl)cc2)c1=O)C(=O)O [compound represented by Formula (I), (2S)-3-(3-[(4-chlorophenyl)methyl]-2,6-dioxo-4-([4-(pyridin-2-yloxy)phenyl]amino)-3,6-dihydro-1,3,5-triazin-1(2H)-yl)-2-methyl-propanoic acid] | – | – | 55 | 46 | 65 | 208.4 | 219.0 | significant improving effect | 51 | 10 | 58 | 55
